# Data from the supplement of paper PMC10307832.
# What was measured:
# Assay in all cases: relative viability (nuclei count vs DMSO), 5 days (fraction); higher = more cells survive
# [1] = compound: CC(C)C[C@H](NC(=O)[C@H](Cc1ccccc1)NC(=O)c1cnccn1)B(O)O [Bortezomib] + Nc1nc2[nH]cc(CCc3ccc(C(=O)N[C@@H](CCC(=O)O)C(=O)O)cc3)c2c(=O)[nH]1 [Pemetrexed] (partner 0.2 µM)
# How it was run: (§1)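 Lung cancer cell lines were seeded in 1536-well plates and dosed by pin tool the next day, with either a single drug or a fixed anchor-drug dose combined with five library-drug doses (not always all listed) spaced in √10 steps. Five days later, one step fixed the cells and stained their nuclei (final 0.05% Triton X-100, 1% formaldehyde, 1 ug/ml Hoechst), and nuclei were counted on 4× images. Relative viability is the nuclei count in treated wells divided by the count in vehicle wells, and each value is the median of duplicate plates.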
# [2] = compound: CC1=CC(=NN1)NC2=CC(=NC(=N2)/C=C/C3=CC=CC=C3)N4CCN(CC4)C + COc1cccc2cc(-c3nc([C@H]4CC[C@H](C(=O)O)CC4)n4ncnc(N)c34)[nH]c12 [OSI-027] (partner 0.5 µM)
# How it was run: as §1
# [3] = compound: CC1=CC(=NN1)NC2=CC(=NC(=N2)/C=C/C3=CC=CC=C3)N4CCN(CC4)C + Cc1cc(Nc2cc(N3CCN(C)CC3)nc(Sc3ccc(NC(=O)C4CC4)cc3)n2)n[nH]1 [Tozasertib] (partner 0.1 µM)
# How it was run: as §1
# [4] = compound: COC1=CC(c2cc3ccccc3[nH]2)=N/C1=C\c1[nH]c(C)cc1C [Obatoclax] + C[C@@H](Oc1cc(-c2cnn(C3CCNCC3)c2)cnc1N)c1c(Cl)ccc(F)c1Cl [Crizotinib] (partner 1 µM)
# How it was run: as §1
Cell Line,relative viability ([1]; first compound 0.0002 µM),relative viability ([1]; first compound 0.000632 µM),relative viability ([1]; first compound 0.002 µM),relative viability ([1]; first compound 0.006325 µM),relative viability ([1]; first compound 0.02 µM),relative viability ([2]; first compound 0.08 µM),relative viability ([2]; first compound 0.253 µM),relative viability ([2]; first compound 0.8 µM),relative viability ([2]; first compound 2.53 µM),relative viability ([2]; first compound 8 µM),relative viability ([3]; first compound 0.08 µM),relative viability ([3]; first compound 0.253 µM),relative viability ([3]; first compound 0.8 µM),relative viability ([3]; first compound 2.53 µM),relative viability ([3]; first compound 8 µM),relative viability ([4]; first compound 0.01 µM),relative viability ([4]; first compound 0.03162 µM),relative viability ([4]; first compound 0.1 µM),relative viability ([4]; first compound 0.3162 µM),relative viability ([4]; first compound 1 µM)
201T,0.338,0.327,0.321,0.353,0.308,0.718,0.756,0.803,0.531,0.112,0.973,0.916,0.746,0.388,0.25,1.01,1.03,1.04,0.996,1.06
A549,–,–,–,–,–,–,–,–,–,–,–,–,–,–,–,0.75,0.799,0.752,0.664,0.0778
A-427,0.914,0.971,0.968,0.235,0.182,0.531,0.295,0.466,0.192,0.0905,0.212,0.136,0.178,0.0979,0.0938,0.958,0.792,0.802,0.999,0.968
ABC-1,–,–,–,–,–,0.453,0.54,0.644,0.179,0.143,0.191,0.164,0.191,0.207,0.182,1.2,1.18,1.6,1.06,0.723
BEN,0.75,0.806,0.88,0.529,0.373,0.294,0.264,0.271,0.244,0.162,0.492,0.533,0.451,0.364,0.38,0.897,0.841,0.853,0.75,0.817
CAL-12T,1.25,1.26,1.24,1.15,0.123,0.666,0.651,0.447,0.14,0.12,0.25,0.303,0.251,0.172,0.143,0.511,0.797,0.492,0.382,0.105
COR-L23,0.186,0.196,0.201,0.0763,0.0792,0.817,0.753,0.67,0.361,0.0841,0.163,0.182,0.148,0.1,0.0908,0.632,0.696,0.635,0.212,0.174
COR-L 105,1.03,1.12,1.13,0.494,0.303,0.773,0.834,0.678,0.255,0.178,0.372,0.304,0.348,0.248,0.246,0.802,0.959,1,0.51,0.522
Calu-6,–,–,–,–,–,–,–,–,–,–,–,–,–,–,–,0.778,0.769,0.736,0.739,0.137
ChaGo-K-1,0.265,0.238,0.249,0.267,0.192,0.566,0.548,0.528,0.191,0.131,0.222,0.227,0.217,0.195,0.172,1.26,0.996,–,1.15,1.02
EBC-1,–,–,–,–,–,–,–,–,–,–,–,–,–,–,–,0.176,0.198,0.197,0.19,0.168
EKVX,0.373,0.417,0.482,0.216,0.102,0.699,0.845,0.664,0.611,0.3,0.396,0.451,0.383,0.196,0.104,0.867,0.979,0.979,0.914,0.643
EMC-BAC-2,0.415,0.44,0.443,0.326,0.266,0.364,0.426,0.32,0.226,0.097,0.282,0.249,0.254,0.234,0.149,0.777,0.725,0.738,0.745,0.634
EPLC-272H,0.354,0.308,0.157,0.085,0.0797,0.305,0.277,0.231,0.202,0.171,0.34,0.203,0.273,0.113,0.122,0.873,0.682,0.803,0.941,0.946
H3255,0.6,0.603,0.479,0.378,0.344,0.582,0.541,0.579,0.589,0.382,0.79,0.71,0.374,0.513,0.297,0.773,0.87,0.828,0.624,0.697
HARA,0.221,0.178,0.228,0.157,0.13,0.361,0.474,0.649,0.252,0.0476,0.111,0.108,0.11,0.0787,0.0585,1.01,1.03,1.1,1.05,0.382
HCC-15,0.213,0.199,0.215,0.13,0.1,0.665,0.642,0.549,0.158,0.0878,0.291,0.355,0.18,0.0787,0.0703,0.768,0.821,0.741,0.776,0.689
HCC-44,0.674,0.723,0.615,0.631,0.256,0.615,0.49,0.633,0.292,0.144,0.83,1.05,0.67,0.268,0.146,0.786,0.684,0.8,0.721,0.228
